# Tested on: Endogenous Huntingtin Protein
# Assay: Endogenous Huntingtin Protein Assay (ELISA-based MSD electrochemiluminescence)
# Assay type: cell-based
# Settings: Table 1
# Summary of the method: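 Sandwich MSD electrochemiluminescence immunoassay. Capture used MW1 (expanded polyglutamine) or MAB2166 antibody coated at 1 μg/mL overnight at 4 °C. Samples were bound overnight at 4 °C, then a rabbit monoclonal detection antibody and SULFO-TAG anti-rabbit, each at 0.25 μg/mL, were applied for 1 h at room temperature.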
row,SMILES,IC50 [nM]
1,"CN(c1nc2cnc(-c3cc(F)c4nn(C)cc4c3)cc2s1)C1CCNCC1 [Compound 216, 6-(7-fluoro-2-methyl-2H-indazol-5-yl)-N-methyl-N-(piperidin-4-yl)[1,3]thiazolo[4,5-c]pyridin-2-amine]",100 to 500
2,"CN1CC[C@H](N(C)c2nc3nnc(-c4ccc(-c5cn[nH]c5)cc4O)cc3s2)C[C@H]1CO [Compound 372, 2-(6-{[(2S,4S)-2-(hydroxymethyl)-1-methylpiperidin-4-yl](methyl)amino}[1,3]thiazolo[4,5-c]pyridazin-3-yl)-5-(1H-pyrazol-4-yl)phenol]",≤ 100
3,"CN(c1nc2nnc(-c3ccc(-c4cn[nH]c4)cc3O)cc2s1)C1CC2(CNC2)C1 [Compound 356, 2-{6-[(2-azaspiro[3.3]heptan-6-yl)(methyl)amino][1,3]thiazolo[4,5-c]pyridazin-3-yl}-5-(1H-pyrazol-4-yl)phenol]",100 to 500
4,"CN(c1nc2nnc(-c3ccc(-c4cn[nH]c4)cc3O)cc2s1)[C@H]1CCNC[C@H]1F [Compound 358, 2-(6-{[(3R,4S)-3-fluoropiperidin-4-yl](methyl)amino}[1,3]thiazolo[4,5-c]pyridazin-3-yl)-5-(1H-pyrazol-4-yl)phenol]",500 to 1000
5,"Cn1cc2cc(-c3ccc4nc(C5=CCCNCC5)sc4c3)ccc2n1 [Compound 56, 6-(2-methyl-2H-indazol-5-yl)-2-(2,3,6,7-tetrahydro-1H-azepin-4-yl)-1,3-benzothiazole]",500 to 1000
6,"Cc1cn2nc(-c3cc(F)c4nc(C5CCNCC5)sc4c3)cc(C#N)c2n1 [Compound 230, 6-[4-fluoro-2-(piperidin-4-yl)-1,3-benzothiazol-6-yl]-2-methylimidazo[1,2-b]pyridazine-8-carbonitrile]",≤ 100

# Source: patent publication US12139499B2, “Heteroaryl compounds for treating Huntington's disease” (PTC THERAPEUTICS, INC., priority 2018, dated 2024)
